Literature values, collected in patent publication US20160051533A1, “DIAGNOSIS AND PHARMACOLOGICAL TREATMENT OF SEASONAL AFFECTIVE DISORDER AND SYMPTOMS OF SEASONALITY” (Ladd Research LLC, priority 2014, published 2016).
Ends that are not written are not given here.

Tests used:
[1] = tested on: rat ventral tegmental area dopamine neurons; details: 0.0001-10 micro molar orexin A; nearly half of the tested neurons; cited from earlier work
[2] = tested on: mice; details: no photoperiod manipulation; cited from earlier work

| Compound | basal firing frequency [1] | immobility in Forced Swim Test and Tail Suspension Test [2] |
| --- | --- | --- |
| orexin A: neuropeptide of 33 amino acid residues with two disulfide bonds, derived from prepro-orexin (QPLPDCCRQKTCSCRLYELLHGAGNHAAGILTL; disulfide (positions not given here); ends not checked; also: two disulfide bonds, pairing not given here; UniProt O43612 34-66, looked up) | 175+/−17 % of control |  |
| Cc1nc2ccc(NC(=O)Nc3ccnc4cccnc34)cc2o1 [SB-334867] |  | decreased immobility |
